Patent publication US9951060B2, “2-acylaminothiazole derivative or salt thereof” (ASTELLAS PHARMA INC., priority 2014, dated 2018)
Read-outs that look alike come from different tables or passages of the source.

Key:
[1] = target: T1, human muscarinic M3 receptor (Homo sapiens, UniProt P20309); assay: Test Example 1: muscarinic M3 receptor positive allosteric modulator activity (shift of carbachol concentration-response curve, intracellular Ca2+, FLIPR); conditions: carbachol EC50 without / with test substance, CHO-K1 cells expressing human M3
T1 sequence (P20309 whole entry): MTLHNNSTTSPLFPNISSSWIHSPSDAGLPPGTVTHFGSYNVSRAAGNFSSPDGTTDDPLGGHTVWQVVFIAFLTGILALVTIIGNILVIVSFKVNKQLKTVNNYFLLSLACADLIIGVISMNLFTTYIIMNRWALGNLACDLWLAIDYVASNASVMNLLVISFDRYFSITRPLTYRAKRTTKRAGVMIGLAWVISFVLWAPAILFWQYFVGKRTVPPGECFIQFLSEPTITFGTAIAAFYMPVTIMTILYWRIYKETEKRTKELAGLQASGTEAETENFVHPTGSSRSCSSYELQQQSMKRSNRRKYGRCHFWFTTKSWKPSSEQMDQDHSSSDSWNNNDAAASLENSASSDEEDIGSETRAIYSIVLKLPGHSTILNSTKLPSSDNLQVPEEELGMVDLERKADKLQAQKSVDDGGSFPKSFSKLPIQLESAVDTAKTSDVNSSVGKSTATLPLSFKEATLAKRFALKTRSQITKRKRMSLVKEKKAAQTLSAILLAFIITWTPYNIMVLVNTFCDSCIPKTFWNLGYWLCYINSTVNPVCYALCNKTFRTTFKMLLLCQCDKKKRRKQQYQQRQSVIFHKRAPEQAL
Excerpt: (§1) Test Example 1: Evaluation of Muscarinic M3 Receptor Positive Allosteric Modulator Activity
(§2) a) Construction of Vector Expressing Human Muscarinic M3 Receptor
(§3) A human muscarinic M3 receptor gene (GenBank Accession No.: NM_000740.2) was introduced into an expression vector pcDNA3.1™ (Life Technologies).
(§4) b) Construction of Cells Stably Expressing Human Muscarinic M3 Receptor
(§5) A vector expressing a human muscarinic M3 receptor was introduced into a CHO—K1 cell (ATCC No.: CCL-61). The introduction was carried out according to the attached instructions, using a transfection reagent, Lipofectoamine (registered trademark) 2000 Reagent (Life Technologies). The cells were incubated in an alpha Modified Eagle Minimum Essential Medium (α-MEM) including 2 mM glutamine, 10% fetal bovine serum, and 2.0 mg/mL Geneticin (registered trademark) (Life Technologies) for 4 weeks to acquire a drug-resistant clone.
(§6) c) Measurement of Intracellular Ca^2+ Concentration
(§7) The cells obtained in b) above were suspended in an α-MEM including 2 mM glutamine, 10% fetal bovine serum, and 0.2 mg/mL Geneticin (registered trademark) to the amount from 1.2 to 1.5×10^4 cells/well the day before the experiment, dispensed into a 384-well plate (Model No. 355962, BD Biosciences), and incubated overnight at 37° C. and 5% CO2. The medium was replaced with a loading buffer (an assay buffer (Hank's balanced salt solution (HBSS), 1 g/L BSA, 20 mM HEPES (pH 7.5), and 2.5 mM probenecid), including 3.1 μM Fluo 4-AM (Dojindo Laboratories) and incubated for about 2 hours at room temperature. Thereafter, the cells were washed with a plate washer ELx405™ (BIO-TEK Instrument, Inc.) set with the assay buffer, and set in an intracellular Ca^2+ concentration measuring system (FLIPR^tetra (registered trademark), Molecular Device Co.). The test substances (final concentration of 1 μM or 10 μM) and carbachol (Sigma, final concentration of 0.0024 nM to 10 μM) which had each been dissolved in the assay buffer in advance were set in a FLIPR^tetra (registered trademark). The test substances were added to the cells in the device and after about 5 minutes, carbachol was added to the cells. An increase rate of the intracellular Ca^2+ concentration by carbachol was measured (excitement wavelength of 470 nm to 495 nm and a fluorescence wavelength of 515 nm to 575 nm).
(§8) For the muscarinic M3 receptor-positive allosteric modulator activity, a shift toward a lower concentration side of a carbachol concentration-response curve by the test substance was used as an index. […] For example, when the EC50 value of carbachol in the absence of the test substance was 0.1 μM and the EC50 value of carbachol in the presence of the test substance was 0.01 μM, the value of the muscarinic M3 receptor-positive allosteric modulator activity becomes 10, showing that the test substance causes a 10-fold shift in the EC50 value toward to the low concentration side.

[2] = target: T2, human c-Mpl-introduced Ba/F3 cell (Homo sapiens, UniProt P40238); assay: Test Example 2: human c-Mpl-introduced Ba/F3 cell proliferative activity; type: cell-based; conditions: concentration exhibiting 30% proliferation; 100% = positive control (Example 315 of Patent Document 1) at 1 μM
T2 construct: expressed in transfected cells
T2 sequence (P40238 26-635): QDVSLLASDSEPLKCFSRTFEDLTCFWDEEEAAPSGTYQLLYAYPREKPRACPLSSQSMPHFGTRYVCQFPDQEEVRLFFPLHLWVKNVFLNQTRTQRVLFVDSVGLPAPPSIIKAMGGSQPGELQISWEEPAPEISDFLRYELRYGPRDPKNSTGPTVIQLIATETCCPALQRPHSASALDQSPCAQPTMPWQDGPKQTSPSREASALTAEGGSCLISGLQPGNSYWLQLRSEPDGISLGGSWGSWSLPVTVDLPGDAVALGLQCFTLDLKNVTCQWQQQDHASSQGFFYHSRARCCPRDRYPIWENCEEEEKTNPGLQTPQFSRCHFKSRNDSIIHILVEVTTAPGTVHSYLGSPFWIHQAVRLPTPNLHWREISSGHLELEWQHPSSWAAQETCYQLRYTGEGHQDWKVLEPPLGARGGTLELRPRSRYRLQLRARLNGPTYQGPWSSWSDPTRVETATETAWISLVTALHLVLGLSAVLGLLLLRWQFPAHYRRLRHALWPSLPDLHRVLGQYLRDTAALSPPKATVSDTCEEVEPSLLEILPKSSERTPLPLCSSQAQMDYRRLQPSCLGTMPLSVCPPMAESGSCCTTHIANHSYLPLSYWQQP
Protocol: Test Example 2: Evaluation of Human c-Mpl-Introduced Ba/F3 Cell Proliferative Activity
The human c-Mpl-introduced Ba/F3 cell proliferation action was measured by the following method.
As a positive control, 1-(5-{[4-(4-chlorothiophen-2-yl)-5-{[(2R)-2-methylpyrrolidin-1-yl]methyl}-1,3-thiazol-2-yl]carbamoyl}-3-fluoropyridin-2-yl)piperidine-4-carboxylic acid hydrochloride disclosed as Example 315 in Patent Document 1, represented by the formula (A1) above, was used. Further, it is known that the compound has a good human c-Mpl-introduced Ba/F3 cell proliferative activity as disclosed in Table 1 in Patent Document 1.
a) Construction of Vector Expressing Human c-Mpl Receptor
A human c-Mpl receptor gene (GenBank Accession No.: M90102.1) was transfected into an expression vector pEF-BOS (Nucleic Acids Research, 18: pp 5322 (1990)).
b) Construction of Cell Stably Expressing Human c-Mpl Receptor
A vector expressing a human c-Mpl receptor was introduced into a Ba/F3 cell (RIKEN BRC: RCB0805). For the introduction, an electroporation method was used. pEF-BOS-c-mpl (10 μg), pSV2bsr (1 μg, Kaken Pharmaceutical Co., Ltd.) and 1×10^7 of Ba/F3 cells were put into cuvettes with a gap width of 0.4 cm and electroporated under a condition of 1.5 kV (25 μF) in a Gene Pulser (registered trademark) (BioRad). The cells were incubated in an RPMI-1640 medium supplemented with a 0.5% WEHI conditioned medium (BD Biosciences) and 10% fetal bovine serum for 3 days, and thereafter, and the cells were incubated for 30 days in an RPMI-1640 medium, to which 10 μg/mL blasticidin had been further added, thereby acquiring a drug-resistant clone.
c) Measurement of Cell Proliferative Activity
The cells obtained in b) above were dispensed into an RPMI-1640 medium supplemented with a 0.5% WEHI conditioned medium and 10% fetal bovine serum, and used. The day before the experiment, the test substances (final concentration of 100 nM to 10 μM) which had been dissolved in a medium for assay (an RPMI-1640 medium supplemented with 10% fetal bovine serum) were added to a 384-well plate (Model No. 781185, Greiner bio-one). The cells after the medium had been replaced with the medium for assay were dispensed to a 384-well plate to which the test substance had been added, to 1×10^4 cells/well, and incubated overnight at 37° C. and 5% CO2. On the experiment day, a solution of a Cell counting kit (Dojindo Laboratories) was added to each well of the 384-well plate, and the cells were incubated for about 5 hours at 37° C. and 5% CO2. Thereafter, the absorbance (an absorbance wavelength of 450 nm) of each well was measured using Safire^2 (registered trademark) (TECAN), and used as an index for the number of cells. Further, as a negative control, a well to which the test substances had not been added was prepared.
By taking the absorbance of the well to which the test substance had been not added as 0% and taking the absorbance in a case where the positive control had been added to a final concentration of 1 μM as 100%, a cell proliferation rate (%) was calculated from the absorbance of the well to which the test substance had been added.

[3] = target: T1, human muscarinic M3 receptor
Excerpt: as §1, §2, §3, §4, §5, §6, §7, §8

[4] = target: T2, human c-Mpl-introduced Ba/F3 cell; conditions: disclosed in Table 1 of Patent Document 1 (WO 2005/007651); cited from earlier work

Compound	muscarinic M3 receptor-positive allosteric modulator activity, 1 μM (-fold shift) ([1]; test substance 1 μM)	muscarinic M3 receptor-positive allosteric modulator activity, 10 μM (-fold shift) ([1]; test substance 10 μM)	human c-Mpl-introduced Ba/F3 cell proliferative activity EC30 [2] [µM]	muscarinic M3 receptor-positive allosteric modulator activity, 1 μM (-fold shift) [3]	muscarinic M3 receptor-positive allosteric modulator activity, 10 μM (-fold shift) [3]	EC30 value of c-Mpl-introduced Ba/F3 cell proliferation action [4] [µM]
C[C@@H]1CC[C@@H](C)N1Cc1sc(NC(=O)c2cnc(N3CCN(CCC(=O)O)[C@@H](C)C3)cn2)nc1-c1cc(Cl)cs1 [Example 126]	–	–	>10	79 -fold shift	318 -fold shift	–
C[C@H]1CN(c2cnc(C(=O)Nc3nc(-c4cc(Cl)cs4)c(CN(C)CC4CC4)s3)cn2)CCN1CCC(=O)O [Example 128]	–	–	8	73 -fold shift	192 -fold shift	–
C[C@@H]1CCCN1Cc1sc(NC(=O)c2cnc(N3CCN(CCC(=O)O)CC3)cn2)nc1-c1cc2ccccc2s1 [Example 132]	–	–	>10	15 -fold shift	41 -fold shift	–
C[C@@H]1CCCN1Cc1sc(NC(=O)c2cnc(N3CCC(C(=O)O)CC3)c(F)c2)nc1-c1cc(Cl)cs1.Cl [Example 315, 1-(5-{[4-(4-chlorothiophen-2-yl)-5-{[(2R)-2-methylpyrrolidin-1-yl]methyl}-1,3-thiazol-2-yl]carbamoyl}-3-fluoropyridin-2-yl)piperidine-4-carboxylic acid hydrochloride]	–	–	–	–	–	0.0032

More lines, main results first:

muscarinic M3 receptor-positive allosteric modulator activity, 1 μM (-fold shift) ([1]; test substance 1 μM)	muscarinic M3 receptor-positive allosteric modulator activity, 10 μM (-fold shift) ([1]; test substance 10 μM)	human c-Mpl-introduced Ba/F3 cell proliferative activity EC30 [2] [µM]	muscarinic M3 receptor-positive allosteric modulator activity, 1 μM (-fold shift) [3]	muscarinic M3 receptor-positive allosteric modulator activity, 10 μM (-fold shift) [3]	Compound	EC30 value of c-Mpl-introduced Ba/F3 cell proliferation action [4] [µM]
25 -fold shift	200 -fold shift	>3	–	–	Cc1cc(-c2nc(NC(=O)c3cnc(N4CCN(CCC(=O)[O-])CC4)cn3)sc2CN2CCCC[C@H]2C)cc(C(F)(F)F)c1.[Na+] [Example 4, sodium 3-(4-{5-[(5-{[(2R)-2-methylpiperidin-1-yl]methyl}-4-[3-methyl-5-(trifluoromethyl)phenyl]-1,3-thiazol-2-yl)carbamoyl]pyrazin-2-yl}piperazin-1-yl)propanoate]	–
–	–	5	203 -fold shift	627 -fold shift	C[C@@H]1CC[C@@H](C)N1Cc1sc(NC(=O)c2cnc(N3CCN(CCC(=O)O)CC3)cn2)nc1-c1cc(C(F)(F)F)cs1 [Example 111]	–
–	–	>10	57 -fold shift	167 -fold shift	CCN(CC)Cc1sc(NC(=O)c2cnc(N3CCN(CC(=O)O)C[C@H]3C)cn2)nc1-c1cc(F)cc(C(F)(F)F)c1 [Example 118]	–
–	–	>10	95 -fold shift	151 -fold shift	C[C@@H]1CN(c2cnc(C(=O)Nc3nc(-c4cc(Cl)cs4)c(CN(C)CC4CC4)s3)cn2)CCN1CCC(=O)O [Example 130]	–
